From patent US20150168420A1, “BIOORTHOGONAL CHEMICAL INDUCERS OF REVERSIBLE DIMERIZATION FOR CONTROL OF PROTEIN FUNCTION IN CELLS” (MAX-PLANCK-GESELLSCHAFT ZUR FÖRDERUNG DER WISSENSCHAFTEN …, priority 2012, published 2015)
Entries after “also recorded” stand apart in the source; their conditions may differ.

Legend:
[1] = molecular target: Citrine-eDHFR-PM and Cherry-FKBP WT (Escherichia coli, UniProt P0ABQ4); experiment: Translocation to plasma membrane and FLIM in MCF-7 cells, FKBP WT; format: cell-based; conditions: 2 μM, 2 h
[2] = molecular target: FKBP(F36V) (Homo sapiens, UniProt P62942, F37V); conditions: cited from earlier work
[3] = molecular target: wild type FKBP (Homo sapiens, UniProt P62942); conditions: cited from earlier work
[4] = tested on: Beclin1; conditions: starved EGFP-LC3 MCF-7 cells, 1 μM

CCC(C)(C)C(=O)C(=O)N1CCCCC1C(=O)O[C@H](CCc1ccc(OC)c(OC)c1)c1cccc(NC(=O)CCC(=O)NCCCOCCOCCOCCCNC(=O)COc2c(OC)cc(Cc3cnc(N)nc3N)cc2OC)c1 (some centres unmarked) [SLF-TMP]
translocation of cognate binding domain FKBP WT to the plasma membrane [1]: cannot induce translocation

CCC(C(=O)N1CCCCC1C(=O)O[C@H](CCc1ccc(OC)c(OC)c1)c1cccc(OCC(=O)O)c1)c1cc(OC)c(OC)c(OC)c1 (some centres unmarked) [SLF′]
Kd ([2]; read-out: Kd for binding domain of FKBP(F36V)): 0.094 nM
binding to naturally occurring (unmutated) FKBP ([3]; in words): does not bind at all; also recorded: very low affinity
fold lower affinity for wild type FKBP than for mutant FKBP(F36V) ([3]; wild type versus F36V): > 1000 fold

COc1cc(Cc2cnc(N)nc2N)cc(OC)c1OC [TMP, 5-(3,4,5-trimethoxybenzyl)pyrimidine-2,4-diamine]
autophagy (LC3 puncta) on Beclin1 knock off / knock on [4]: Recovery of autophagy

CCC(C(=O)N1CCCCC1C(=O)O[C@H](CCc1ccc(OC)c(OC)c1)c1cccc(OCC(=O)NCCCOCCOCCOCCCNC(=O)COc2c(OC)cc(Cc3cnc(N)nc3N)cc2OC)c1)c1cc(OC)c(OC)c(OC)c1 (some centres unmarked) [SLF′-TMP]
autophagy (LC3 puncta) on Beclin1 knock off / knock on [4]: Inhibition of autophagy

CCC(C)(C)C(=O)C(=O)N1CCCC[C@H]1C(=O)O[C@H](CCc1ccc(OC)c(OC)c1)c1cccc(OCC(=O)O)c1 [SLF]
affinity to FKBP(F36V) ([2]; in words): low affinity
Kd ([3]; read-out: Kd for endogenous FKBP): 10 to 20 nM
